What was measured:
Melatonin MT1 = Melatonin MT1 (Homo sapiens, UniProt P48039); test: Eurofins lead profiling screen (radioligand binding)
Adrenergic α1B = Adrenergic α1B (Rattus norvegicus, UniProt P15823); test: as above
Opiate κ (OP2, KOP) = Opiate κ (OP2, KOP) (Homo sapiens, UniProt P41145); test: as above
Purinergic P2Y = test: as above; design: species or system Rat
Adrenergic α2A = Adrenergic α2A (Homo sapiens, UniProt P08913); test: as above
Transporter, GABA = Transporter, GABA (Rattus norvegicus, UniProt P23978); test: as above
Endothelin ETA = Endothelin ETA (Homo sapiens, UniProt P25101); test: as above
Endothelin ETA, sequence (P25101 21-427): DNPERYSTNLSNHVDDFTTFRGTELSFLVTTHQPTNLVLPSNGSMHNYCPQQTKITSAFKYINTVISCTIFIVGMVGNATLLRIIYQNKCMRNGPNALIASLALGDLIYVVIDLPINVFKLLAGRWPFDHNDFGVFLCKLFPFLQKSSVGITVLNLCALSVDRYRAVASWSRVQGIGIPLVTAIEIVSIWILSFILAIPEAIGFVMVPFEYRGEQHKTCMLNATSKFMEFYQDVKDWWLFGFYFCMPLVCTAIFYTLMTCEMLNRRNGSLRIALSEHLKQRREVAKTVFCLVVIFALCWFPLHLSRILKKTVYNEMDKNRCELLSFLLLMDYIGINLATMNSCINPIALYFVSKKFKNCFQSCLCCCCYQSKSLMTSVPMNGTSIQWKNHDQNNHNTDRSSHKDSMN

HNC4 = HNC4 (Homo sapiens, UniProt Q9Y3Q4); test: Cardiac ion channel MPC selectivity panel; type: cell-based
HNC4, sequence (Q9Y3Q4 whole entry): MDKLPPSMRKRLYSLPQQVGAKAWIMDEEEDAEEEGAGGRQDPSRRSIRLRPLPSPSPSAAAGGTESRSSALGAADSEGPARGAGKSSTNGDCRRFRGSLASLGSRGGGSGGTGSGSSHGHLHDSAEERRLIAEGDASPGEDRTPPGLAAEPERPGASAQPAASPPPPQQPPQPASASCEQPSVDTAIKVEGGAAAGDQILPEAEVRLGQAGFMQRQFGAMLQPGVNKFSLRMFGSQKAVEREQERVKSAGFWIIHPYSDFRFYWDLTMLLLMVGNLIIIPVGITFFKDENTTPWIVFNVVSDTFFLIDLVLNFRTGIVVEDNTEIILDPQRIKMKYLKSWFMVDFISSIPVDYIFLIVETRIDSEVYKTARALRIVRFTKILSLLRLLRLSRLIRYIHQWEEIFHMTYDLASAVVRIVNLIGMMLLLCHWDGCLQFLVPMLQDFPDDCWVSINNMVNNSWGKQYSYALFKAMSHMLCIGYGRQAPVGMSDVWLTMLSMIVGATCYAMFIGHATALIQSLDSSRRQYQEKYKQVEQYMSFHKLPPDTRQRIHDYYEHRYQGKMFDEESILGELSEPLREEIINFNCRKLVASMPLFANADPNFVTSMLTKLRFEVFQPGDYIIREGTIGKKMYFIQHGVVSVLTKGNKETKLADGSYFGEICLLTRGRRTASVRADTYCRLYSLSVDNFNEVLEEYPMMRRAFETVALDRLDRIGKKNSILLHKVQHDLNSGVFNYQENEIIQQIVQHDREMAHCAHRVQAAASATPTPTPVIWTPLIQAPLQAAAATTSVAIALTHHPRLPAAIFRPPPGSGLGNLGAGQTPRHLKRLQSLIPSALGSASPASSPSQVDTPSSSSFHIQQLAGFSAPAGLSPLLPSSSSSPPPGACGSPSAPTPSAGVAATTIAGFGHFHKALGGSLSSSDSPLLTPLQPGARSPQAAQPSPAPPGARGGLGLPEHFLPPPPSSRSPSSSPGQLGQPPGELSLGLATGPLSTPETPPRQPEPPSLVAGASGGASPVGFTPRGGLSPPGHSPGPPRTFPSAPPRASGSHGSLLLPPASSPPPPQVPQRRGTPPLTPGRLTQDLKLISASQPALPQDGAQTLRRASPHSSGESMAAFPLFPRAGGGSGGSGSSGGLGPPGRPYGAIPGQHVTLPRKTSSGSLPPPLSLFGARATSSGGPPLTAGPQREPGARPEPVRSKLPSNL

[1] = Brain homogenate binding (mouse); type: in vitro ADME
Procedure: 0.3% DMSO - ΔRatio of 1 µM control compound)x100
In vitro Plasma protein binding and Brain homogenate binding: Determination of fraction unbound (f u) in plasma was conducted in vitro via equilibrium dialysis using HTDialysis (HTD) membrane plates. The top half of the plate was filled with 100 uL of Dubelco’s Phosphate Buffered Saline, pH 7.4 (DPBS). Compounds were diluted into plasma from each species (5 µM final concentration), which was aliquoted in triplicate to the ‘bottom half’ of the prepared HTD plate wells. The HTD plate was sealed and incubated for 6 hours at 37 °C. […]
The unbound fraction (f u) was calculated following the equation below, and mean values for each species were calculated from 3 replicates. […] Fraction unbound for both plasma and brain samples was determined using Equation 4. […]
The diluted fraction unbound (fu2) in brain was calculated in the same manner by using brain homogenate rather than plasma. Undiluted fraction unbound for the brain was calculated using […]
were incubated in 100 mM potassium phosphate pH 7.4 buffer with 3 mM MgCl2 at 37 °C with constant shaking. […] The in vitro half-life (T 1/2, min, Eq. 1), intrinsic clearance (CLint, mL/min/kg, Eq. 2), and subsequent predicted hepatic clearance (CLhep, mL/min/kg, Eq. 3) were determined employing the following equations: […]

Adrenergic α1B, sequence (P15823 whole entry): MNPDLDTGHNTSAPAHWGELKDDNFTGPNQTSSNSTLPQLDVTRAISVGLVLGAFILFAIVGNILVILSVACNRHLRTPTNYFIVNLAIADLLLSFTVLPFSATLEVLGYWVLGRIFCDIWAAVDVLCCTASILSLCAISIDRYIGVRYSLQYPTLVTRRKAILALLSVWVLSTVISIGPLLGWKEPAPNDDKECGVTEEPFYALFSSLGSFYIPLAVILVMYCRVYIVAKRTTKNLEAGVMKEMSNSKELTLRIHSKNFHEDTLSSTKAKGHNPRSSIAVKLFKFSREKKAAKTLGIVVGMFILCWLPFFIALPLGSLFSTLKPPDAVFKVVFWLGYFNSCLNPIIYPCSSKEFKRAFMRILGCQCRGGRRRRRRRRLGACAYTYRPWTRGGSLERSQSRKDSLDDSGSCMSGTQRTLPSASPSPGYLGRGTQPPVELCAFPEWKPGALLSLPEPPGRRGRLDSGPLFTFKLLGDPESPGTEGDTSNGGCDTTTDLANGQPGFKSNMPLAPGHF
Opiate κ (OP2, KOP), sequence (P41145 whole entry): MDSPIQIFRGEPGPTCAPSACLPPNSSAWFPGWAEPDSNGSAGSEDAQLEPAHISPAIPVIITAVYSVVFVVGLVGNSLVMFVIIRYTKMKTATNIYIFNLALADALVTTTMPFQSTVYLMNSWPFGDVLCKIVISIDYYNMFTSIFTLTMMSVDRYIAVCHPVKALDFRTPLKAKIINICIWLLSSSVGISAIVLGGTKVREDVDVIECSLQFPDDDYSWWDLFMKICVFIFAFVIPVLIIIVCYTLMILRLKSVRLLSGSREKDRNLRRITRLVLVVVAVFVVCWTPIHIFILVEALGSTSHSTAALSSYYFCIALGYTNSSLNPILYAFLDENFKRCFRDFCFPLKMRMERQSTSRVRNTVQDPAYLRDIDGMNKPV
Adrenergic α2A, sequence (P08913 whole entry): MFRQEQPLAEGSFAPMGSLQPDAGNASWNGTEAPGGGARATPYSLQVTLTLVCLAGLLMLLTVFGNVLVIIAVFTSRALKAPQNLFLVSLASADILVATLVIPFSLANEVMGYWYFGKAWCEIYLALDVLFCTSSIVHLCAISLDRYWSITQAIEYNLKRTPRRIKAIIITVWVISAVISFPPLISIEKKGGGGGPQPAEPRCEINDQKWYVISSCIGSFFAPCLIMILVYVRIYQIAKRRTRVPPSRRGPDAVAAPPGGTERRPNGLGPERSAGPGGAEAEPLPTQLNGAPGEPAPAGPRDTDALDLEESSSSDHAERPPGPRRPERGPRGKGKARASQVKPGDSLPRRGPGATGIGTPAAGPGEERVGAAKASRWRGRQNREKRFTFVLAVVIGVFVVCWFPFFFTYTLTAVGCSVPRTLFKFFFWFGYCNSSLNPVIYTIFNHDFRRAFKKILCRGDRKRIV
Melatonin MT1, sequence (P48039 whole entry): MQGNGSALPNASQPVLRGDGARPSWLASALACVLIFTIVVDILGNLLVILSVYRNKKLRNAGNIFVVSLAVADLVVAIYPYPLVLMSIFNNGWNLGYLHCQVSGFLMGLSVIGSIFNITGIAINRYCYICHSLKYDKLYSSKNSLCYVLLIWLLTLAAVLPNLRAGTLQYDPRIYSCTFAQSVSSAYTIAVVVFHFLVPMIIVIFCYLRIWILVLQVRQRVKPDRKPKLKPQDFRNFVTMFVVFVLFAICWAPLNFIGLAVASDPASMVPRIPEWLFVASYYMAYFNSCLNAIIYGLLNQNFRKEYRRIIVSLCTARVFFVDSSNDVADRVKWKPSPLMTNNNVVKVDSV

| SMILES | inhibition at 10 µM (Melatonin MT1) [%] | inhibition at 10 µM (Adrenergic α1B) [%] | inhibition at 10 µM (Opiate κ (OP2, KOP)) [%] | % Inhibition at 10 µM (Purinergic P2Y) [%] | inhibition at 10 µM (Adrenergic α2A) [%] | inhibition at 10 µM (Transporter, GABA) [%] | inhibition at 10 µM (Endothelin ETA) [%] | % at 10 μM, HNC4 (HNC4) [%] | brain homogenate binding mouse [1] [%] |
| --- | --- | --- | --- | --- | --- | --- | --- | --- | --- |
| O=C(NCc1ccc(OC(F)(F)F)cc1F)c1ccc2ncnn2c1 [ONO-2920632] | 29 | 11 | 9 | 1 | 36 | 19 | -11 | – | – |
| Cc1cc(C#Cc2ccc(F)cc2)cnc1NC(=O)c1cc(NC(=O)OC(C)(C)C)ccc1Cl [Compound 14c] | – | – | – | – | – | – | – | < 50 | 99.4 |

— paper PMC12067145 (ACS Medicinal Chemistry Letters, 2025)
